Measured values reported in ChEMBL document CHEMBL1932962, “Discovery, design and synthesis of novel potent and selective sphingosine-1-phosphate 4 receptor (S1P₄-R) agonists” (Bioorg Med Chem Lett, 2012).

What was measured:
[1] = biological target: T1, Sphingosine 1-phosphate receptor 4 (Homo sapiens, UniProt O95977); assay: Agonist activity at human S1P4R expressed in human U2OS cells containing EDG6 gene co-expressing GAL4-VP16 and beta-arrestin/TEV protease assessed as migration of VP16-GAL4 into nucleus by […] based beta-lactamase reporter gene assay; type: functional, cell-based
T1 sequence (O95977 whole entry): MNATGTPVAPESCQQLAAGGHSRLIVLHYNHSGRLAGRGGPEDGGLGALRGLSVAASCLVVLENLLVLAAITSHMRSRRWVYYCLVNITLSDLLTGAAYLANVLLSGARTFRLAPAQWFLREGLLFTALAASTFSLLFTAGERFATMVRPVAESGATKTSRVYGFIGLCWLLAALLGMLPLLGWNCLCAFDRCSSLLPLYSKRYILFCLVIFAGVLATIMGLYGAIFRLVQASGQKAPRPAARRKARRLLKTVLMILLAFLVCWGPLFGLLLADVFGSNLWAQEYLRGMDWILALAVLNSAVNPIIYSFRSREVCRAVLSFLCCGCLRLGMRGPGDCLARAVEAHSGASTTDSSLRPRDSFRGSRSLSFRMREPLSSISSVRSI

[2] = biological target: T1, Sphingosine 1-phosphate receptor 4; assay: Agonist activity at human S1P4R expressed in human U2OS cells containing EDG6 gene co-expressing GAL4-VP16 and beta-arrestin/TEV protease assessed as migration of VP16-GAL4 into nucleus up to 25 uM by […] based beta-lactamase reporter gene assay; type: functional, cell-based
[3] = biological target: Sphingosine 1-phosphate receptor 2 (Homo sapiens, UniProt O95136); assay: Agonist activity at S1P2R up to 25 uM; type: functional
[4] = biological target: Sphingosine 1-phosphate receptor 5 (Homo sapiens, UniProt Q9H228); assay: Agonist activity at S1P5R up to 25 uM; type: functional
[5] = biological target: Sphingosine 1-phosphate receptor 3 (Homo sapiens, UniProt Q99500); assay: Agonist activity at S1P3R up to 25 uM; type: functional
[6] = biological target: Sphingosine 1-phosphate receptor 1 (Homo sapiens, UniProt P21453); assay: Agonist activity at S1P1R up to 25 uM; type: functional
[7] = biological target: T2, Sphingosine 1-phosphate receptor 4 (Homo sapiens) (UniProt O95977); assay: Agonist activity at human S1P4R expressed in human U2OS cells containing EDG6 gene co-expressing GAL4-VP16 and beta-arrestin/TEV protease assessed as migration of VP16-GAL4 into nucleus at 50 uM by […] based beta-lactamase reporter gene assay; type: functional, cell-based
T2 sequence (whole entry): T1 sequence (O95977 whole entry)

[8] = biological target: T2, Sphingosine 1-phosphate receptor 4 (Homo sapiens); assay: Agonist activity at human S1P4R expressed in human U2OS cells containing EDG6 gene co-expressing GAL4-VP16 and beta-arrestin/TEV protease assessed as migration of VP16-GAL4 into nucleus at 2600 nM by […] based beta-lactamase reporter gene assay; type: functional, cell-based
[9] = biological target: T2, Sphingosine 1-phosphate receptor 4 (Homo sapiens); assay: Agonist activity at human S1P4R expressed in human U2OS cells containing EDG6 gene co-expressing GAL4-VP16 and beta-arrestin/TEV protease assessed as migration of VP16-GAL4 into nucleus at 1300 nM by […] based beta-lactamase reporter gene assay; type: functional, cell-based
[10] = biological target: T2, Sphingosine 1-phosphate receptor 4 (Homo sapiens); assay: Agonist activity at human S1P4R expressed in human U2OS cells containing EDG6 gene co-expressing GAL4-VP16 and beta-arrestin/TEV protease assessed as migration of VP16-GAL4 into nucleus at 6000 nM by […] based beta-lactamase reporter gene assay; type: functional, cell-based

Sequence of Sphingosine 1-phosphate receptor 1 (P21453 whole entry, the tested form may be a part): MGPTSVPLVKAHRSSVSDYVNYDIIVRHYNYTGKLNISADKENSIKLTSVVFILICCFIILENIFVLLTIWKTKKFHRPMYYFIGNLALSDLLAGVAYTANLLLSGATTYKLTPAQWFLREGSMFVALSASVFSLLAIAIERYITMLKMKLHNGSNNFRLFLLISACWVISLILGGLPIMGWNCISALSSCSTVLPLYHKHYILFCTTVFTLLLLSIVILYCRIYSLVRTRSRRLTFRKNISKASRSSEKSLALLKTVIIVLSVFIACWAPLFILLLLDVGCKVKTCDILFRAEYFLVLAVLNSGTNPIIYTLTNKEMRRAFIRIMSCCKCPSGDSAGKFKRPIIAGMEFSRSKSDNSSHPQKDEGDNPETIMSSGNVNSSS
Sequence of Sphingosine 1-phosphate receptor 2 (O95136 whole entry): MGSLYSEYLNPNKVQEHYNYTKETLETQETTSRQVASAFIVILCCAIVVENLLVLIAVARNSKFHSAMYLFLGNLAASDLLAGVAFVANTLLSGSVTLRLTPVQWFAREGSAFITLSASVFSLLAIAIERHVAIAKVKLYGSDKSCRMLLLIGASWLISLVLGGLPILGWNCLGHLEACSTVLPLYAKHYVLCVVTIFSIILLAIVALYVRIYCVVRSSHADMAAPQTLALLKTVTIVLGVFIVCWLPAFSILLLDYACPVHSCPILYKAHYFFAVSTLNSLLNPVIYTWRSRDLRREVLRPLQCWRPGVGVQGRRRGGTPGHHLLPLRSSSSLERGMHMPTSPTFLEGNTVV
Sequence of Sphingosine 1-phosphate receptor 5 (Q9H228 whole entry): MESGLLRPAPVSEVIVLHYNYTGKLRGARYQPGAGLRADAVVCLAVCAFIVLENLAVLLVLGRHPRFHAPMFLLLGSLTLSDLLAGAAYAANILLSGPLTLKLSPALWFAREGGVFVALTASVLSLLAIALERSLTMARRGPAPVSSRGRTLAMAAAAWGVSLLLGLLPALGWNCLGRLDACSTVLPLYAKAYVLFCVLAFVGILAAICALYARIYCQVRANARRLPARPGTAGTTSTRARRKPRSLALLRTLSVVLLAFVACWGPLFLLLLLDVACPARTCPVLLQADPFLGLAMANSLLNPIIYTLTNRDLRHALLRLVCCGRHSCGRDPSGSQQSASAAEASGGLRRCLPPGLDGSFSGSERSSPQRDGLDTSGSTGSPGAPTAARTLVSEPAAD
Sequence of Sphingosine 1-phosphate receptor 3 (Q99500 whole entry): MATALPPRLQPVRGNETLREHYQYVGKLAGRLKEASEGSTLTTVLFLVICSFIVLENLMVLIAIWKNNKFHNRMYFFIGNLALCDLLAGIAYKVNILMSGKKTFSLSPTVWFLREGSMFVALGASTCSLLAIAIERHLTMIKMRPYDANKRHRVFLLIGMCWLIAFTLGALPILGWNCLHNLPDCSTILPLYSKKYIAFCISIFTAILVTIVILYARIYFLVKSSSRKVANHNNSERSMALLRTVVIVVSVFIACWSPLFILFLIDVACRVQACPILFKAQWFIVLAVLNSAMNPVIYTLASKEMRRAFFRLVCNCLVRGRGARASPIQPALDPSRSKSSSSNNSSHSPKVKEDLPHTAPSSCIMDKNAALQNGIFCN

SMILES | EC50 [1] [nM] | EC50 [2] | other results
Clc1ccc(OCCOc2cccnc2Br)c(Cl)c1 | 1300 |  | 
Cc1ccc(OCCOc2ccc(C)nc2[N+](=O)[O-])c(C)c1 | 7200 |  | 
Fc1ccc(OCCOc2ccc(Cl)cc2Cl)c(Br)n1 | 208 |  | 
COCc1ccc(OCCOc2ccc(Cl)cc2Cl)c(Cl)n1 |  | Not Active | 
O=Cc1ccc(OCCOc2ccc(Cl)cc2Cl)c(Cl)n1 | 1800 |  | 
Cc1ccc(OCCOc2ccc(F)cc2F)c([N+](=O)[O-])n1 |  |  | inhibition [7]: 40%
O=Cc1ccc(OCCOc2ccc(Cl)cc2Cl)c(I)n1 | 2100 |  | 
Cc1ccc(OCCOc2ccc(Cl)cc2)c([N+](=O)[O-])n1 |  | Not Active | 
Cc1ccc(OCCOc2ccc(Cl)cc2Cl)c(-c2ccccc2)n1 |  | Not Active | 
Cc1ccc(OC2CCCC2Oc2ccc(Cl)cc2Cl)c([N+](=O)[O-])n1 (stereo unspecified) |  | Not Active | 
Cc1ccc(OCCOc2ccc(Cl)cc2Cl)c(C(=O)N(C)C)n1 |  | Not Active | 
FCc1ccc(OCCOc2ccc(Cl)cc2Cl)c(Cl)n1 | 45 |  | EC50 [3]: Not Active; EC50 [4]: Not Active; EC50 [5]: Not Active; EC50 [6]: Not Active
Cc1ccc(OCCOc2c(Cl)cc(Cl)cc2Cl)c([N+](=O)[O-])n1 | 570 |  | EC50 [3]: Not Active; EC50 [4]: Not Active; EC50 [5]: Not Active; EC50 [6]: Not Active
OCc1ccc(OCCOc2ccc(Cl)cc2Cl)c(I)n1 | 287 |  | EC50 [3]: Not Active; EC50 [4]: Not Active; EC50 [5]: Not Active; EC50 [6]: Not Active
Cc1ccc(OCCOc2ccc(-c3ccccc3)cc2Cl)c([N+](=O)[O-])n1 |  | Not Active | 
Clc1ccc(OCCOc2ccc(Br)nc2Br)c(Cl)c1 | 46 |  | EC50 [3]: Not Active; EC50 [4]: Not Active; EC50 [5]: Not Active; EC50 [6]: Not Active
Cc1ccc(OCCOc2ccc([N+](=O)[O-])cc2F)c([N+](=O)[O-])n1 | 2800 |  | 
Clc1ccc(OCCOc2ccc(-c3ccccc3)nc2Br)c(Cl)c1 | 6000 |  | inhibition [10]: 70%
Cc1ccc(OCCOc2ccc(Br)cc2C(F)(F)F)c([N+](=O)[O-])n1 | 601 |  | EC50 [3]: Not Active; EC50 [4]: Not Active; EC50 [5]: Not Active; EC50 [6]: Not Active
CC(C)=Cc1ccc(OCCOc2ccc(Cl)cc2Cl)c(Cl)n1 |  | Not Active | 
C=Cc1ccc(OCCOc2ccc(Cl)cc2Cl)c(Cl)n1 | 658 |  | 
Cc1ccc(OCCOc2cc(Cl)cc([N+](=O)[O-])c2)c([N+](=O)[O-])n1 | 3500 |  | 
Cc1ccc(OCCOc2ccccc2)c([N+](=O)[O-])n1 |  | Not Active | 
Cc1ccc(OCCOc2ccc(Cl)cc2Cl)cn1 |  | Not Active | 
Cc1ccc2oc(COc3ccc(Cl)cc3Cl)nc2n1 |  | Not Active | 
Cc1cc(C)c(OCCOc2ccc(Cl)cc2Cl)c(Br)n1 |  | Not Active | 
OCc1ccc(OCCOc2ccc(Cl)cc2Cl)c(Cl)n1 | 1500 |  | 

The next lines start with results.

EC50 [1] [nM] | EC50 [2] | SMILES | other results
52 |  | Cc1ccc(OCCOc2ccc(Cl)cc2Cl)c(Br)n1 | EC50 [3]: Not Active; EC50 [4]: Not Active; EC50 [5]: Not Active; EC50 [6]: Not Active
 | Not Active | Cc1ccc(OCCOc2cc(Cl)ccc2Cl)c([N+](=O)[O-])n1 | 
2980 |  | O=[N+]([O-])c1ncccc1OCCOc1ccc(Cl)cc1Cl | 
 | Not Active | Cc1ccc(OCCOc2ccc(Cl)cc2Cl)c(C(=O)O)n1 | 
 | Not Active | Cc1ccc(OCCOc2ccc(Cl)c(Cl)c2)c([N+](=O)[O-])n1 | 
162 |  | Cc1ccc(OCCOc2ccc(Cl)cc2Cl)c([N+](=O)[O-])n1 | EC50 [3]: Not Active; EC50 [4]: Not Active; EC50 [5]: Not Active; EC50 [6]: Not Active
3900 |  | COc1ccc(OCCOc2ccc(C)nc2[N+](=O)[O-])c(Cl)c1 | 
2600 |  | Cc1ccc(OCCOc2ccc(Cl)cc2Cl)c(C)n1 | inhibition [8]: 65%
3100 |  | Cc1ccc(OCCOc2ccc(Cl)cc2F)c([N+](=O)[O-])n1 | 
 | Not Active | Cc1ccc(OCCCOc2ccc(Cl)cc2Cl)c([N+](=O)[O-])n1 | 
232 |  | Cc1ccc(OCCOc2ccc(Cl)cc2Br)c([N+](=O)[O-])n1 | EC50 [3]: Not Active; EC50 [4]: Not Active; EC50 [5]: Not Active; EC50 [6]: Not Active
 | Not Active | Cc1ccc(OC(=O)COc2ccc(Cl)cc2Cl)c([N+](=O)[O-])n1 | 
 | Not Active | Cc1ccc(OCCOc2ccc(Cl)cc2Cl)c(N)n1 | 
1300 |  | Cc1ccc(OCCOc2ccc(Cl)cc2Cl)c([N+](=O)[O-])c1 | inhibition [9]: 40%
5400 |  | COc1cc(Cl)ccc1OCCOc1ccc(C)nc1[N+](=O)[O-] | 
 | Not Active | Cc1ccc(OCCOc2ccc(Cl)cc2Cl)c(CO)n1 | 
2600 |  | Cc1ccc(OCCOc2ccc(F)cc2Cl)c([N+](=O)[O-])n1 | 
 | Not Active | Cc1ccc(OCCOc2ccccc2Cl)c([N+](=O)[O-])n1 | 
54 |  | Cc1ccc(OCCOc2ccc(Cl)cc2Cl)c(I)n1 | EC50 [3]: Not Active; EC50 [4]: Not Active; EC50 [5]: Not Active; EC50 [6]: Not Active
 | Not Active | Cc1ccc(NCCOc2ccc(Cl)cc2Cl)c([N+](=O)[O-])n1 | 
 | Not Active | Cc1ccc(OCCOc2cccc(Cl)c2Cl)c([N+](=O)[O-])n1 | 
4800 |  | COC(=O)c1nc(C)ccc1OCCOc1ccc(Cl)cc1Cl | 
304 |  | O=[N+]([O-])c1nc(Cl)ccc1OCCOc1ccc(Cl)cc1Cl | EC50 [3]: Not Active; EC50 [4]: Not Active; EC50 [5]: Not Active; EC50 [6]: Not Active
7300 |  | CCc1nc(C)ccc1OCCOc1ccc(Cl)cc1Cl | 
 | Not Active | Cc1ccc(OCCc2ccc(Cl)cc2Cl)c([N+](=O)[O-])n1 | 
220 |  | Cc1ccc(OCCOc2ccc(Br)cc2Cl)c([N+](=O)[O-])n1 | EC50 [3]: Not Active; EC50 [4]: Not Active; EC50 [5]: Not Active; EC50 [6]: Not Active
920 |  | Cc1ccc(OCCCc2ccc(Cl)cc2Cl)c([N+](=O)[O-])n1 | 
